Measurements published in ChEMBL document CHEMBL1201862, “PubChem BioAssay data set” (2004).
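Following 48 hours of exposure in 96-well plates, responses at five concentrations were used to interpolate endpoints linearly. The concentration for 50% growth inhibition is given as GI50.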 Active and inactive are the calls of the source. Cut-off read from the data, not from the text of the source: active = GI50 up to about 1.1 µM and inactive = higher.

Tests used:
Test in all cases: NCI-60 cell line screen, 48 h
786-0 = tested on: 786-0
A498 = tested on: A498
A549 = tested on: A549
ACHN = tested on: ACHN
BT-549 = tested on: BT-549
CAKI-1 = tested on: CAKI-1
CCRF-CEM = tested on: CCRF-CEM
COLO 205 = tested on: COLO 205
DU-145 = tested on: DU-145
EKVX = tested on: EKVX
HCC 2998 = tested on: HCC 2998
HCT-116 = tested on: HCT-116
HCT-15 = tested on: HCT-15
HL-60 = tested on: HL-60
HOP-62 = tested on: HOP-62
HOP-92 = tested on: HOP-92
HT-29 = tested on: HT-29
Hs-578T = tested on: Hs-578T
IGROV-1 = tested on: IGROV-1
K562 = tested on: K562
KM12 = tested on: KM12
LOX IMVI = tested on: LOX IMVI
M14 = tested on: M14
MCF7 = tested on: MCF7
MDA-MB-231 = tested on: MDA-MB-231
MDA-MB-435 = tested on: MDA-MB-435
MDA-N = tested on: MDA-N
MOLT-4 = tested on: MOLT-4
Malme-3M = tested on: Malme-3M
NCI-H226 = tested on: NCI-H226
NCI-H23 = tested on: NCI-H23
NCI-H460 = tested on: NCI-H460
NCI-H522 = tested on: NCI-H522
NCI/ADR-RES = tested on: NCI/ADR-RES
OVCAR-3 = tested on: OVCAR-3
OVCAR-5 = tested on: OVCAR-5
OVCAR-8 = tested on: OVCAR-8
PC-3 = tested on: PC-3
RPMI-8226 = tested on: RPMI-8226
RXF 393 = tested on: RXF 393
SF-268 = tested on: SF-268
SF-295 = tested on: SF-295
SF-539 = tested on: SF-539
SK-MEL-28 = tested on: SK-MEL-28
SK-MEL-2 = tested on: SK-MEL-2
SK-MEL-5 = tested on: SK-MEL-5
SK-OV-3 = tested on: SK-OV-3
SN12C = tested on: SN12C
SNB-19 = tested on: SNB-19
SNB-75 = tested on: SNB-75
SR = tested on: SR
SW-620 = tested on: SW-620
T47D = tested on: T47D
TK-10 = tested on: TK-10
U-251 = tested on: U-251
UACC-257 = tested on: UACC-257
UACC-62 = tested on: UACC-62
UO-31 = tested on: UO-31
OVCAR-4 = tested on: OVCAR-4

Structure (SMILES): CCOC(=O)NC(Nc1ccc(F)cc1F)(C(F)(F)F)C(F)(F)F
- GI50 (786-0): > 100 µM (inactive)
- GI50 (A498): > 100 µM (inactive)
- GI50 (A549): > 100 µM (inactive)
- GI50 (ACHN): > 100 µM (inactive)
- GI50 (BT-549): > 100 µM (inactive)
- GI50 (CAKI-1): > 100 µM (inactive)
- GI50 (CCRF-CEM): > 100 µM (inactive)
- GI50 (COLO 205): > 100 µM (inactive)
- GI50 (DU-145): > 100 µM (inactive)
- GI50 (EKVX): > 100 µM (inactive)
- GI50 (HCC 2998): > 100 µM (inactive)
- GI50 (HCT-116): > 100 µM (inactive)
- GI50 (HCT-15): > 100 µM
- GI50 (HL-60): > 100 µM (inactive)
- GI50 (HOP-62): > 100 µM (inactive)
- GI50 (HOP-92): > 100 µM (inactive)
- GI50 (HT-29): > 100 µM (inactive)
- GI50 (Hs-578T): > 100 µM (inactive)
- GI50 (IGROV-1): > 100 µM (inactive)
- GI50 (K562): > 100 µM (inactive)
- GI50 (KM12): > 100 µM (inactive)
- GI50 (LOX IMVI): > 100 µM (inactive)
- GI50 (M14): > 100 µM (inactive)
- GI50 (MCF7): > 100 µM (inactive)
- GI50 (MDA-MB-231): > 100 µM (inactive)
- GI50 (MDA-MB-435): > 100 µM (inactive)
- GI50 (MDA-N): > 100 µM (inactive)
- GI50 (MOLT-4): > 100 µM (inactive)
- GI50 (Malme-3M): > 100 µM (inactive)
- GI50 (NCI-H226): > 100 µM (inactive)
- GI50 (NCI-H23): > 100 µM (inactive)
- GI50 (NCI-H460): > 100 µM (inactive)
- GI50 (NCI-H522): > 100 µM (inactive)
- GI50 (NCI/ADR-RES): > 100 µM (inactive)
- GI50 (OVCAR-3): > 100 µM (inactive)
- GI50 (OVCAR-5): > 100 µM (inactive)
- GI50 (OVCAR-8): > 100 µM (inactive)
- GI50 (PC-3): > 100 µM (inactive)
- GI50 (RPMI-8226): > 100 µM (inactive)
- GI50 (RXF 393): > 100 µM (inactive)
- GI50 (SF-268): > 100 µM (inactive)
- GI50 (SF-295): > 100 µM (inactive)
- GI50 (SF-539): > 100 µM (inactive)
- GI50 (SK-MEL-28): > 100 µM (inactive)
- GI50 (SK-MEL-2): > 100 µM (inactive)
- GI50 (SK-MEL-5): > 100 µM (inactive)
- GI50 (SK-OV-3): > 100 µM (inactive)
- GI50 (SN12C): > 100 µM (inactive)
- GI50 (SNB-19): > 100 µM (inactive)
- GI50 (SNB-75): > 100 µM (inactive)
- GI50 (SR): > 100 µM (inactive)
- GI50 (SW-620): > 100 µM (inactive)
- GI50 (T47D): > 100 µM (inactive)
- GI50 (TK-10): > 100 µM (inactive)
- GI50 (U-251): > 100 µM (inactive)
- GI50 (UACC-257): > 100 µM (inactive)
- GI50 (UACC-62): > 100 µM (inactive)
- GI50 (UO-31): > 100 µM (inactive)

Structure (SMILES): CCCC[C@H]1[C@@H](OCOc2ccccc2)COC(=O)N1[C@H](C)c1ccccc1
- GI50 (A498): 12.9 µM (inactive)
- GI50 (A549): 8.79 µM (inactive)
- GI50 (ACHN): 18.2 µM (inactive)
- GI50 (BT-549): 19.7 µM (inactive)
- GI50 (CAKI-1): 13.5 µM (inactive)
- GI50 (CCRF-CEM): 16.8 µM (inactive)
- GI50 (COLO 205): 25.9 µM (inactive)
- GI50 (DU-145): 21.5 µM (inactive)
- GI50 (EKVX): 25.4 µM (inactive)
- GI50 (HCC 2998): 17.7 µM (inactive)
- GI50 (HCT-116): 7.62 µM (inactive)
- GI50 (HCT-15): 15.9 µM
- GI50 (HL-60): 18 µM (inactive)
- GI50 (HOP-62): 13.8 µM (inactive)
- GI50 (HOP-92): 18.1 µM (inactive)
- GI50 (HT-29): > 34.2 µM (inactive)
- GI50 (Hs-578T): 20.5 µM (inactive)
- GI50 (IGROV-1): 14.7 µM (inactive)
- GI50 (K562): 7.18 µM (inactive)
- GI50 (KM12): 12.9 µM (inactive)
- GI50 (LOX IMVI): 20.8 µM (inactive)
- GI50 (M14): 12.6 µM (inactive)
- GI50 (MCF7): 11.2 µM (inactive)
- GI50 (MDA-MB-231): 13.3 µM (inactive)
- GI50 (MDA-MB-435): 13.3 µM (inactive)
- GI50 (MDA-N): 11.9 µM (inactive)
- GI50 (MOLT-4): 4.54 µM (inactive)
- GI50 (Malme-3M): 15.7 µM (inactive)
- GI50 (NCI-H226): > 100 µM (inactive)
- GI50 (NCI-H23): 18.2 µM (inactive)
- GI50 (NCI-H460): 12.6 µM (inactive)
- GI50 (NCI-H522): 10.3 µM (inactive)
- GI50 (NCI/ADR-RES): > 34.3 µM (inactive)
- GI50 (OVCAR-3): 14.7 µM (inactive)
- GI50 (OVCAR-4): 10.3 µM (inactive)
- GI50 (OVCAR-5): 17.3 µM (inactive)
- GI50 (OVCAR-8): > 49.2 µM (inactive)
- GI50 (PC-3): 6.1 µM (inactive)
- GI50 (RPMI-8226): 6.76 µM (inactive)
- GI50 (RXF 393): 19 µM (inactive)
- GI50 (SF-268): 16.6 µM (inactive)
- GI50 (SF-295): 11.9 µM (inactive)
- GI50 (SK-MEL-28): 21.6 µM (inactive)
- GI50 (SK-MEL-2): 15.1 µM (inactive)
- GI50 (SK-MEL-5): 4.03 µM (inactive)
- GI50 (SK-OV-3): 22.4 µM (inactive)
- GI50 (SN12C): 10.2 µM (inactive)
- GI50 (SNB-19): 21.3 µM (inactive)
- GI50 (SNB-75): 10.8 µM (inactive)
- GI50 (SR): 8.49 µM (inactive)
- GI50 (SW-620): 32.1 µM (inactive)
- GI50 (T47D): 11.3 µM (inactive)
- GI50 (TK-10): 15.6 µM (inactive)
- GI50 (U-251): 14.7 µM (inactive)
- GI50 (UACC-257): 9.66 µM (inactive)
- GI50 (UACC-62): 10.3 µM (inactive)
- GI50 (UO-31): 11.8 µM (inactive)
